Measurements as given in PMC11218202, “Targeting of 3D oral cancer spheroids by αVβ6 integrin using near-infrared peptide-conjugated IRDye 680” (Cancer Cell International, 2024).

Experiments:
HSC-3 cells [1] = assay: Internalization studies in HSC-3 monolayers (4 °C vs 37 °C, endocytosis inhibitors), flow cytometry; format: cell-based, human; settings: for reduction of cellular uptake of IRDye-A20 by endocytosis inhibitor: HSC-3 cells pre-incubated 30 min with Genistein 400 µM, Chlorpromazin or EIPA 100 µM, then IRDye-A20 500 nM for 3 h, n = 3–4
H10 HSC-3 spheroids = assay: Accumulation in homotypic H10 (HSC-3) spheroids, flow cytometry; format: cell-based, human
MRC-5 cells = settings: 24 h, 0.1–4 µM, serum-free medium, highest concentration 4 µM, p > 0.05
Protocol: (§1) Cells were seeded into 96-well plates (100 µL, 4.10^4 cells/mL) for 5 days, then culture medium was replaced with 0.1–4 µM of IRDye-conjugates diluted in serum-free medium for 24 h at 37 °C. Afterwards, cells were washed, fixed with 70% ethanol for 10 min and further incubated with 0.2% crystal violet in 20% ethanol for 15 min. After several washes, crystal violet was solubilized using 0.1% acetic acid and 50% ethanol and optical density was recorded at 540 nm with Multiskan microplate readers (Ascent, Labsystems). Cell viability was calculated by normalizing to that of the control condition.

HSC-3 cells [2] = settings: 24 h, 0.1–4 µM, serum-free medium, highest concentration 4 µM, p > 0.05
Protocol: as §1

Q: `CCN(c1nc(N)c(C(=O)N=C(N)N)nc1Cl)C(C)C` [EIPA, (5-(N-Ethyl-N-isopropyl)-Amiloride)] was tested. Which “reduction of cellular uptake of IRDye-A20 by endocytosis inhibitor” value (“reduction … by endocytosis inhibitor” below) (HSC-3 cells [1]) did it give?
A: not affected

Q: Which “reduction … by endocytosis inhibitor” value (HSC-3 cells [1]) does the source give for `CN(C)CCCN1c2ccccc2Sc2ccc(Cl)cc21` [chlorpromazine, Chlorpromazin] here?
A: not affected

Q: How did the “reduction … by endocytosis inhibitor” value (HSC-3 cells [1]) turn out when `O=c1c(-c2ccc(O)cc2)coc2cc(O)cc(O)c12` [genistein, Genistein] was run?
A: 30%

Q: With CGGGSGGGSLRDQTGLKNPVQLARVAV [IRDye-Scr] as the molecule, how does the “inhibition of internalization at 4 °C versus 37 °C” value (HSC-3 cells [1]; HSC-3 monolayers, 3 h, 1-500 nM, n = 4) read?
A: significant inhibition of internalization at 4 °C was observed only at the highest concentrations

Q: And the “MFI, fold less compared to IRDye-A20” value (H10 HSC-3 spheroids; 100 nM, 24 h)?
A: 20 fold

Q: And the “percentage of labeled cells” value (H10 HSC-3 spheroids; 3 h, maximum over 1-250 nM, n = 4–5)?
A: 3%

Q: And the “percentage of labeled cells” value (H10 HSC-3 spheroids; 6 h, maximum over 1-250 nM, n = 4–5)?
A: 7%

Q: What about the “percentage of labeled cells” value (H10 HSC-3 spheroids; 24 h, 50 nM) of the same molecule?
A: ≤ 3%

Q: And the “percentage of labeled cells” value (H10 HSC-3 spheroids; 24 h, 100 nM)?
A: 11%

Q: What about the “percentage of labeled cells” value (H10 HSC-3 spheroids; 24 h, 250 nM) of the same molecule?
A: 45%

Q: What about the “loss of viability (crystal violet)” value (MRC-5 cells) of the same molecule?
A: Loss of viability was not detected

Q: What about the “loss of viability (crystal violet)” value (HSC-3 cells [2]) of the same molecule?
A: Loss of viability was not detected
